# Measurements reported in US8178873B2, “Solution processable organic semiconductors” (3M Innovative Properties Company, priority 2007, dated 2012).
# Assays:
# [1] = Solubility measurement in n-butylbenzene; format: physicochemical; conditions: room temperature, weight percent based on total solution weight
# Protocol: The solubility of the small molecule semiconductor was measured in n-butylbenzene at room temperature. The weight percent is based on the total solution weight. Typically, the solubility is lower in n-butylbenzene compared to halogenated solvents such as chloroform, chlorobenzene, and dichlorobenzene.
# [2] = Differential Scanning Calorimetry, thermal stability; format: physicochemical; conditions: DSC, heated from 30 to 360° C. at 10° C. per minute
# Protocol: Differential Scanning Calorimetry Measurement
# Differential Scanning Calorimeter (DSC, TA Instruments 2920 from TA Instruments of New Castle, Del.) was used to measure phase transition and melting point of the small molecule semiconductors. Examples 1 to 8 were heated from 30 to 350° C. at a heating rate of 10° C. per minute. […] No decomposition was observed up to the 350° C. of the testing range. […] Example 9 was heated from 30 to 360° C. at a heating rate of 10° C. per minute. […] Example 9 started to decompose around 357° C.
Structure (SMILES),melting point [°C],Solubility in butyl benzene [1] [wt %],Temperature at which decomposition started [2]
"CC(C)[Si](C#Cc1c2ccc(-c3cccs3)cc2c(C#C[Si](C(C)C)(C(C)C)C(C)C)c2ccc(-c3cccs3)cc12)(C(C)C)C(C)C [Example 1, 2,6-Bis(thiophene-2-yl)-9,10-bis-[(triisopropylsilyl)ethynyl]anthracene]",293,0.05,
"Cc1ccc(-c2ccc3c(C#C[Si](C(C)C)(C(C)C)C(C)C)c4cc(-c5ccc(C)s5)ccc4c(C#C[Si](C(C)C)(C(C)C)C(C)C)c3c2)s1 [Example 2, 2,6-Bis(5-methyl-thiophene-2-yl)-9,10-bis-[(triisopropylsilyl)ethynyl]anthracene]",333,0.05,
"Cc1ccsc1-c1ccc2c(C#C[Si](C(C)C)(C(C)C)C(C)C)c3cc(-c4sccc4C)ccc3c(C#C[Si](C(C)C)(C(C)C)C(C)C)c2c1 [Example 3, 2,6-Bis(3-methyl-thiophene-2-yl)-9,10-bis-[(triisopropylsilyl)ethynyl]anthracene]",237.6,2.3,
"CCc1ccc(-c2ccc3c(C#C[Si](C(C)C)(C(C)C)C(C)C)c4cc(-c5ccc(CC)s5)ccc4c(C#C[Si](C(C)C)(C(C)C)C(C)C)c3c2)s1 [Example 4, 2,6-Bis(5-ethyl-thiophene-2-yl)-9,10-bis-[(triisopropylsilyl)ethynyl]anthracene]",274.6,1.4,
"CCCc1ccc(-c2ccc3c(C#C[Si](C(C)C)(C(C)C)C(C)C)c4cc(-c5ccc(CCC)s5)ccc4c(C#C[Si](C(C)C)(C(C)C)C(C)C)c3c2)s1 [Example 5, 2,6-Bis(5-propyl-thiophene-2-yl)-9,10-bis-[(triisopropylsilyl)ethynyl]anthracene]",208.3,1.4,
"CCCCCCc1ccc(-c2ccc3c(C#C[Si](C(C)C)(C(C)C)C(C)C)c4cc(-c5ccc(CCCCCC)s5)ccc4c(C#C[Si](C(C)C)(C(C)C)C(C)C)c3c2)s1 [Example 6, 2,6-Bis(5-hexyl-thiophene-2-yl)-9,10-bis-[(triisopropylsilyl)ethynyl]anthracene]",190.3,2.5,
"CCCCCCc1ccsc1-c1ccc2c(C#C[Si](C(C)C)(C(C)C)C(C)C)c3cc(-c4sccc4CCCCCC)ccc3c(C#C[Si](C(C)C)(C(C)C)C(C)C)c2c1 [Example 7, 2,6-Bis(3-hexyl-thiophene-2-yl)-9,10-bis-[(triisopropylsilyl)ethynyl]anthracene]",141.8,4.2,
"CC(C)[Si](C#Cc1c2ccc(-c3ccc(-c4cccs4)s3)cc2c(C#C[Si](C(C)C)(C(C)C)C(C)C)c2ccc(-c3ccc(-c4cccs4)s3)cc12)(C(C)C)C(C)C [Example 8, 2,6-Bis(2,2′-bithiophene-5-yl)-9,10-bis-[(triisopropylsilyl)ethynyl]anthracene]",299,0.2,
"CC(C)[Si](C#Cc1c2ccc(-c3ccc(C=O)s3)cc2c(C#C[Si](C(C)C)(C(C)C)C(C)C)c2ccc(-c3ccc(C=O)s3)cc12)(C(C)C)C(C)C [Example 9, 2,6-Bis(5-formyl-thiophene-2-yl)-9,10-bis-[(triisopropylsilyl)ethynyl]anthracene]",> 350,0.04,around 357 °C
